Reference: ChEMBL document CHEMBL1145804, “Synthesis and characterization of the first fluorescent antagonists for human 5-HT4 receptors” (J Med Chem, 2003)

How the values were obtained:
[1] = target: T1, 5-hydroxytryptamine receptor 4 (Homo sapiens, UniProt Q13639); experiment: Binding affinity towards cloned human 5-hydroxytryptamine 4E receptor expressed in C6 glial cells using [3H]GR-113808 as radioligand; type: cell-based
[2] = target: T1, 5-hydroxytryptamine receptor 4; experiment: Antagonist activity (inhibition of 5-HT-stimulated cAMP synthesis) of compound at cloned human 5-hydroxytryptamine 4E receptor expressed in C6 glial cells by Schild analysis

T1 sequence (Q13639 whole entry): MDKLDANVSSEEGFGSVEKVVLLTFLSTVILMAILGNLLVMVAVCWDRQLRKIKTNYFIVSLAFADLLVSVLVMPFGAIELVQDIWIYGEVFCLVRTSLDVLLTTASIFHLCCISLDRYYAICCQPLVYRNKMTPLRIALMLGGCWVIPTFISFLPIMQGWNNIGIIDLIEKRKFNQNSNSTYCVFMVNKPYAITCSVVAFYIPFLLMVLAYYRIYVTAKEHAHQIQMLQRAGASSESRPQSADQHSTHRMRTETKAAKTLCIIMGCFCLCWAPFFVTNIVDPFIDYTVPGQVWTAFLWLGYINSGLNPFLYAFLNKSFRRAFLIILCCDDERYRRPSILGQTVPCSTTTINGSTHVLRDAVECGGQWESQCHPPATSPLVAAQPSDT

Structure (SMILES)	Ki [1] [nM]	Kb [2] [nM]
COc1cc(N)c(Cl)cc1C(=O)OCCN1CCC(CN2C(=O)c3cccc4c(N(C)C)ccc(c34)C2=O)CC1	181	
COc1cc(N)c(Cl)cc1C(=O)OCCN1CCN(C(=O)CCCCCCCNS(=O)(=O)c2cccc3c(N(C)C)cccc23)CC1	31	
COc1cc(N)c(Cl)cc1C(=O)OCCN1CCC(CCCCNS(=O)(=O)c2cccc3c(N(C)C)cccc23)CC1	24	
COc1cc(N)c(Cl)cc1C(=O)OCCN1CCC(CNc2ccc([N+](=O)[O-])c3nonc23)CC1		2.1
COc1cc(N)c(Cl)cc1C(=O)OCCN1CCC(CN2C(=O)c3cccc4c(N)ccc(c34)C2=O)CC1	64	9
COc1cc(N)c(Cl)cc1C(=O)OCCN1CCC(CNc2ccc([N+](=O)[O-])c3n[o+][n-]c23)CC1	7.5	
COc1cc(N)c(Cl)cc1C(=O)OCCN1CCN(C(=O)CCNS(=O)(=O)c2cccc3c(N(C)C)cccc23)CC1	116	
COc1cc(N)c(Cl)cc1C(=O)OCCN1CCC(NS(=O)(=O)c2cccc3c(N(C)C)cccc23)CC1	264	
COc1cc(N)c(Cl)cc1C(=O)OCCN1CCC(CCNS(=O)(=O)c2cccc3c(N(C)C)cccc23)CC1	77	
COc1cc(N)c(Cl)cc1C(=O)OCCN1CCC(CNS(=O)(=O)c2cccc3c(N(C)C)cccc23)CC1	7	5.7
COc1cc(N)c(Cl)cc1C(=O)OCCN1CCN(C(=O)CNS(=O)(=O)c2cccc3c(N(C)C)cccc23)CC1	1720	
COc1cc(N)c(Cl)cc1C(=O)OCCN1CCC(CCCCN2C(=O)c3cccc4c(N(C)C)ccc(c34)C2=O)CC1	59	
COc1cc(N)c(Cl)cc1C(=O)OCCN1CCC(CCCNS(=O)(=O)c2cccc3c(N(C)C)cccc23)CC1	32	
COc1cc(N)c(Cl)cc1C(=O)OCCN1CCN(C(=O)CCCNS(=O)(=O)c2cccc3c(N(C)C)cccc23)CC1	183	
COc1cc(N)c(Cl)cc1C(=O)OCCN1CCN(C(=O)CCCCCNS(=O)(=O)c2cccc3c(N(C)C)cccc23)CC1	180	
COc1cc(N)c(Cl)cc1C(=O)OCCN1CCN(C(=O)CCCCCCCCCCNS(=O)(=O)c2cccc3c(N(C)C)cccc23)CC1	96	
